The record followed here is US12584905B2, “Method for identifying molecular markers of children's skin” (LABORATOIRES EXPANSCIENCE, priority 2012, dated 2026).

Type in all cases: cell-based, human
For data set [1], the system named is reconstructed epidermises from donors of 1 month of age. Put plainly: Cell viability (MTT test) of reconstructed epidermises after product application. The conditions noted are these: reconstructed epidermis from 1-month-old donors, applied for 16 hours. The procedure:
(§1) Reconstructed skin models were generated using these samples. Reconstructed epidermises were thus produced with the various donors selected using the technique by Poumay et al. (Arch Dermatol Res, 296(5): 203-211, 2004). After two days of submerged culture, the reconstructed epidermises were cultured at the air/liquid interface for 5 or 9 days. For the duration of the culture, the medium was replenished every 2 to 3 days.
(§2) Epidermises were reconstructed as specified in example 1 with keratinocytes from donors of 1 month of age. The products, a cleansing cream and a moisturising lotion both containing avocado perseose, were applied on these reconstructed epidermises for 16 hours. A control was produced by applying 0.4% SDS on control reconstructed epidermis samples.
(§3) IL-8 protein was assayed in the culture supernatant using an Elisa test. The cell viability was evaluated using the MTT test. Finally, a histological analysis was conducted on tissues included in paraffin by means of haematoxylin and eosin staining.
In general terms: Formazan colour is commonly taken as a measure of viable cells.

For data set [2], the system named is IL-8 protein. Put plainly: IL-8 protein assay in culture supernatant (Elisa test) of treated reconstructed epidermises. To be noted: reconstructed epidermis from 1-month-old donors, applied for 16 hours. The method, then:
as §1, §2, §3

Data set [3] concerns reconstructed epidermises from donors of 1 month of age. In words: Histological analysis (haematoxylin and eosin) of thickness of live cell layers of treated reconstructed epidermises. The conditions noted are these: histology, reconstructed epidermis from 1-month-old donors, applied for 16 hours, control = 100%, SDS at 0.4%. The method, then: as §1, §2, §3

In the case of `CCCCCCCCCCCCOS(=O)(=O)[O-].[Na+]` [SDS], in data set [1] (MTT test, control = 100%, SDS at 0.4%), the Viability is recorded as 2%. Also, in data set [1], the “Effect on cell viability (in words)” value was “very significantly reduced”. This molecule registered an IL8 inflammatory molecule in data set [2] (Elisa in culture supernatant, control = 100%, SDS at 0.4%) of 602%. Also, the “Effect on IL-8 expression (in words)” value in data set [2] was “significant increase”. For the same molecule, the “Thickness of live layers” value in data set [3] is on record as 58%.
